Values quoted from earlier work as cited in US20040122104A1 (Collegium Pharmaceutical, Inc., priority 2002, published 2004).
Where two headings read alike, the source gives them in different places.

Experiments:
[1] = compared with SSRIs and tricyclic antidepressants
[2] = intravenous, of 10 patients
[3] = 75-100 mg/day twice daily for 8 weeks, 219 elderly patients
[4] = not given; remark: listed apart in the source
[5] = approximately 400,000 patients
[6] = in vivo

| Compound | disturbances of REM sleep [1] | patients reporting transient nausea [2] | only adverse event reported more frequently than for imipramine recipients [3] | global pain score, mean value (1-7 scale (1 very much improved, 4 unchanged, 7 very much worse), patients who reached endpoint) | participants who failed the dose escalation (BID-IR group (twice daily immediate release)) [%] | participants who failed the dose escalation (QD-IR group (once daily immediate release)) [%] | metabolites as share of the concentration of the parent drug ([4]; liver metabolism) | number of chemically identified metabolites ([4]; liver metabolism) | time in which oral doses are absorbed and extensively distributed in the body ([4]; oral) [h] | toxicity in humans [5] | top three adverse events associated with discontinuation of treatment [6] |
| --- | --- | --- | --- | --- | --- | --- | --- | --- | --- | --- | --- |
| CCN(CC)C(=O)C1(c2ccccc2)CC1CN (centres unmarked) [milnacipran, Milnacipran] | only minor disturbances | five | nausea | 2.3 | 6 | 19 | about 10% | ten | 1 to 2 | non-toxic | – |
| CN[C@H]1CC[C@@H](c2ccc(Cl)c(Cl)c2)c2ccccc21 [sertraline] | – | – | – | – | – | – | – | – | – | – | nausea, insomnia, and diarrhea |
